In PubChem BioAssay (NCI) one finds GI50 and TGI data, which are given here for eight compounds.

Among the test systems are RXF 393 renal; HCT-15 colon; HOP-92 NSCLC; SK-MEL-2 melanoma; OVCAR-4 ovarian; SN12C renal; CCRF-CEM leukemia; SK-MEL-5 melanoma; COLO 205 colon; UACC-62 melanoma.
Holding throughout (assay): NCI anticancer screen, dose series, 48 h

“And” between values parts separate entries of the source, which are not always exact repeats. Identical values can stand only once.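 Grown in 96-well plates, cells were treated for 48 hours with each compound at five concentrations. Insufficient inhibition: endpoint recorded as highest concentration tested. Abbreviation: GI50, concentration required for 50% inhibition of growth. TGI marks complete inhibition of growth.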 Where only a bound is given, the exact number is not on record here.

Regarding `O=c1[nH]cnc2nc(-c3ccc(N(CCCl)CCCl)cc3)[nH]c12`, the GI50 in the assay on RXF 393 renal is 15.8 µM; in the assay with HCT-15 colon, 9.81 µM; with HOP-92 NSCLC, 17.8 µM; in the assay with SK-MEL-2 melanoma, > 100 µM; in the assay with OVCAR-4 ovarian it was 20.1 µM; in the assay on SN12C renal, 63.7 µM. Further, the GI50 with CCRF-CEM leukemia was > 100 µM; in the assay on SK-MEL-5 melanoma, 3.47 µM; with COLO 205 colon it was > 100 µM; with UACC-62 melanoma, 0.507 µM. Besides, the TGI in the assay with RXF 393 renal is 50.7 µM; with HCT-15 colon it was > 100 µM; in the assay on HOP-92 NSCLC, > 100 µM; in the assay with SK-MEL-2 melanoma, > 100 µM; in the assay with OVCAR-4 ovarian it was > 100 µM; with SN12C renal, > 100 µM. The TGI was > 100 µM in the assay on CCRF-CEM leukemia, > 100 µM with SK-MEL-5 melanoma, > 100 µM with COLO 205 colon and 71.6 µM in the assay on UACC-62 melanoma.
Turning to `N[C@H](C(=O)O)[C@@H](Cl)CC(=O)O`, the TGI in the assay with RXF 393 renal, in the assay with HCT-15 colon, in the assay on HOP-92 NSCLC, with SK-MEL-2 melanoma, in the assay on OVCAR-4 ovarian and with SN12C renal was > 100 µM in each case. The TGI in the assay with CCRF-CEM leukemia, with SK-MEL-5 melanoma, in the assay on COLO 205 colon and with UACC-62 melanoma was > 100 µM each time.
As to `Cc1ccc(SCC(O)=C2C(=O)CCCC2=O)cc1`, the TGI in the assay on RXF 393 renal, in the assay with HCT-15 colon, in the assay with HOP-92 NSCLC, in the assay on SK-MEL-2 melanoma, with OVCAR-4 ovarian and in the assay on SN12C renal was > 100 µM in each case. The TGI with CCRF-CEM leukemia, with SK-MEL-5 melanoma, in the assay on COLO 205 colon and with UACC-62 melanoma was > 100 µM in each case.
Consider `O=[N+]([O-])c1ccc(NC(=S)N/N=C(\c2ccccc2)c2ccccn2)cc1`, for which the TGI was 2.83 µM and 3.06 µM in the assay with RXF 393 renal; 2.71 µM with HCT-15 colon; 3.39 µM and 2.6 µM in the assay with HOP-92 NSCLC; 4.44 µM and 3.69 µM in the assay on SK-MEL-2 melanoma; 3.42 µM and 3.51 µM in the assay on OVCAR-4 ovarian; 2.83 µM in the assay with SN12C renal. Also, the TGI in the assay with CCRF-CEM leukemia was 2.31 µM and 10.2 µM; in the assay on SK-MEL-5 melanoma it was 2.53 µM and 2.74 µM; in the assay with COLO 205 colon, 2.52 µM and 3.88 µM; in the assay with UACC-62 melanoma, 2.92 µM. In addition, the GI50 in the assay on HOP-92 NSCLC was 1.32 µM; in the assay on SK-MEL-2 melanoma it was 2.05 µM; in the assay with CCRF-CEM leukemia it was 0.0073 µM; in the assay on COLO 205 colon, 0.0423 µM; with UACC-62 melanoma it was 3.4 µM.
Turning to `C[C@H]1CC2=CC(=O)CC[C@]2(C)[C@H]2CC[C@@]3(C)[C@@H](CC[C@]3(C)O)[C@H]12`, the GI50 in the assay with RXF 393 renal was 24.8 µM; with HCT-15 colon it was 28.2 µM; with HOP-92 NSCLC, 8.66 µM; in the assay with SK-MEL-2 melanoma it was 15.4 µM; in the assay with OVCAR-4 ovarian, 38 µM; with SN12C renal, 41.6 µM. In addition, the GI50 with CCRF-CEM leukemia is 12.1 µM; with SK-MEL-5 melanoma, 14.8 µM; in the assay with COLO 205 colon, 15.8 µM; in the assay with UACC-62 melanoma, 22.2 µM. The TGI in the assay on RXF 393 renal is 76.9 µM; in the assay with HCT-15 colon, > 100 µM; in the assay on HOP-92 NSCLC, 44.3 µM; with SK-MEL-2 melanoma it was 37.4 µM; with OVCAR-4 ovarian, > 100 µM; in the assay with SN12C renal, > 100 µM. For the same compound, the TGI with CCRF-CEM leukemia is 53.7 µM; in the assay on SK-MEL-5 melanoma, 33.3 µM; with COLO 205 colon it was 36.1 µM; in the assay with UACC-62 melanoma, > 67 µM.
Turning to `CC(=O)O[C@H](C[C@H](C(C)C)N(C)C(=O)[C@@H](NC(=O)[C@H]1CCCCN1C)C(C)(C)C)c1nc(C(=O)N[C@@H](Cc2ccccc2)C[C@H](C)C(=O)O)cs1`, the GI50 in the assay with RXF 393 renal is < 0.0025 µM; with HCT-15 colon, < 0.0025 µM; with HOP-92 NSCLC, < 0.0025 µM; in the assay on SK-MEL-2 melanoma, < 0.0025 µM; in the assay with OVCAR-4 ovarian, 0.00525 µM; in the assay on SN12C renal, < 0.0025 µM. The GI50 with CCRF-CEM leukemia, in the assay with SK-MEL-5 melanoma, with COLO 205 colon and with UACC-62 melanoma was < 0.0025 µM in each case. The TGI in the assay on RXF 393 renal was > 25 µM; in the assay on HCT-15 colon, > 25 µM; in the assay on HOP-92 NSCLC, 0.297 µM; in the assay with SK-MEL-2 melanoma, > 25 µM; in the assay on OVCAR-4 ovarian it was > 25 µM; in the assay with SN12C renal, > 25 µM. Also, the TGI in the assay with CCRF-CEM leukemia is > 25 µM; in the assay on SK-MEL-5 melanoma, 0.0057 µM; in the assay on COLO 205 colon it was 0.0053 µM; with UACC-62 melanoma it was > 25 µM.
Turning to `CC(C)N(Cc1ccccc1)S(=O)(=O)c1n[nH]c(C(C)(C)C)n1`, the TGI in the assay on RXF 393 renal, in the assay on HCT-15 colon, with HOP-92 NSCLC, in the assay with SK-MEL-2 melanoma, in the assay on OVCAR-4 ovarian and with SN12C renal was > 100 µM each time. Besides, the TGI in the assay on CCRF-CEM leukemia, in the assay on SK-MEL-5 melanoma, in the assay with COLO 205 colon and in the assay with UACC-62 melanoma was > 100 µM throughout.
As to `S=C(Nc1ccccc1)N1CCn2c1nsc2=Nc1ccccc1`, the GI50 in the assay on RXF 393 renal is > 100 µM; with HCT-15 colon it was 78.2 µM; in the assay on HOP-92 NSCLC it was 92.7 µM; in the assay on SK-MEL-2 melanoma, > 100 µM; in the assay on OVCAR-4 ovarian it was > 100 µM; with SN12C renal, > 100 µM. The GI50 is 31.4 µM with CCRF-CEM leukemia, 37.8 µM with SK-MEL-5 melanoma, > 100 µM in the assay with COLO 205 colon and 45.9 µM with UACC-62 melanoma. Also, the TGI in the assay on RXF 393 renal, in the assay with HCT-15 colon, with HOP-92 NSCLC, in the assay with SK-MEL-2 melanoma, in the assay with OVCAR-4 ovarian and in the assay on SN12C renal was > 100 µM each time. Also, the TGI with CCRF-CEM leukemia, in the assay on SK-MEL-5 melanoma, with COLO 205 colon and in the assay on UACC-62 melanoma was > 100 µM throughout.
